Species: Rattus norvegicus
Assay: Open TG-GATES - Regimen: Single
Format: toxicity, organism-based, Sprague-Dawley
Parameters: regimen Single, gender Male, age 6 weeks
Conditions: in vivo, po, 120 mg/kg, route gavage, dose level Middle; for APTT / Bas / Eos / Fbg / Hb / Ht / Lym / MCH / MCHC / MCV / Mono / Neu / PT / Plat / RBC / Ret / WBC: tissue Blood; for KIDNEY_L / KIDNEY_R / KIDNEY_TOTAL: tissue Kidney; for LIVER: tissue Liver; for A/G / ALP / ALT / AST / BUN / CRE / Ca / Cl / DBIL / GLC / IP / K / LDH / Na / PL / RALB / TBIL / TC / TG / TP / gamma-GTP: tissue Plasma

In the case of `COc1ccc(Cc2nccc3cc(OC)c(OC)cc23)cc1OC` [PAPAVERINE], the TERMINAL_BW (3 h) is reported as 221.6 g, the APTT (3 h) is reported as 22.7 s and the Bas (3 h) is reported as 0%. The Eos (3 h) was 1%, the Fbg (3 h) was 312.8 mg/dL and the Hb (3 h) was 13.4 g/dL. It also gave a Ht (3 h) of 40.5%, a Lym (3 h) of 77.6% and an MCH (3 h) of 20.9 pg. For the same compound, the MCHC (3 h) was 33.2%, the MCV (3 h) was 63 fL and the Mono (3 h) was 2.4%. It also gave a Neu (3 h) of 17.8%, a PT (3 h) of 15.9 s and a Plat (3 h) of 108.5 x10_4/uL. For the same compound, the RBC (3 h) was 641.8 x10_4/ul, the Ret (3 h) was 7.3% and the WBC (3 h) was 88.5 x10_2/uL. For the same compound, the KIDNEY_L (3 h) was 0.9 g, the KIDNEY_R (3 h) was 1 g and the KIDNEY_TOTAL (3 h) was 1.9 g. For the same compound, the LIVER (3 h) was 9.5 g, the A/G (3 h) was 1.2 and the ALP (3 h) was 1542 IU/L. The ALT (3 h) was 43.6 IU/L, the AST (3 h) was 78.6 IU/L and the BUN (3 h) was 11.4 mg/dL. For the same compound, the CRE (3 h) was 0.1 mg/dL, the Ca (3 h) was 11 mg/dL and the Cl (3 h) was 107.8 meq/L. The DBIL (3 h) was 0 mg/dL, the GLC (3 h) was 181.4 mg/dL and the IP (3 h) was 8.7 mg/dL. For the same compound, the K (3 h) was 4 meq/L, the LDH (3 h) was 162.8 IU/L and the Na (3 h) was 141.8 meq/L. It also gave a PL (3 h) of 128.4 mg/dL, an RALB (3 h) of 2.9 g/dL and a TBIL (3 h) of 0.008 mg/dL. It also gave a TC (3 h) of 74.6 mg/dL, a TG (3 h) of 43.8 mg/dL and a TP (3 h) of 5.3 g/dL. For the same compound, the gamma-GTP (3 h) was 2 IU/L, the TERMINAL_BW (6 h) was 219.8 g and the APTT (6 h) was 20.9 s. The Bas (6 h) was 0%, the Eos (6 h) was 0.8% and the Fbg (6 h) was 317.8 mg/dL. It also gave a Hb (6 h) of 13 g/dL, a Ht (6 h) of 39.5% and a Lym (6 h) of 80.2%. The MCH (6 h) was 20.9 pg, the MCHC (6 h) was 32.9% and the MCV (6 h) was 63.7 fL. It also gave a Mono (6 h) of 2.8%, a Neu (6 h) of 14.6% and a PT (6 h) of 15.8 s. The Plat (6 h) was 131.3 x10_4/uL, the RBC (6 h) was 622.4 x10_4/ul and the Ret (6 h) was 8.7%. It also gave a WBC (6 h) of 116 x10_2/uL, a KIDNEY_L (6 h) of 1 g and a KIDNEY_R (6 h) of 1 g. It also gave a KIDNEY_TOTAL (6 h) of 1.9 g, an LIVER (6 h) of 9.5 g and an A/G (6 h) of 1.3. It also gave an ALP (6 h) of 1418.8 IU/L, an ALT (6 h) of 36.6 IU/L and an AST (6 h) of 71.6 IU/L. It also gave a BUN (6 h) of 11.2 mg/dL, a CRE (6 h) of 0.2 mg/dL and a Ca (6 h) of 11.4 mg/dL. The Cl (6 h) was 107.2 meq/L, the DBIL (6 h) was 0 mg/dL and the GLC (6 h) was 181 mg/dL. For the same compound, the IP (6 h) was 9.4 mg/dL, the K (6 h) was 4.3 meq/L and the LDH (6 h) was 166.2 IU/L. It also gave a Na (6 h) of 140.4 meq/L, a PL (6 h) of 137.4 mg/dL and an RALB (6 h) of 3.1 g/dL. It also gave a TBIL (6 h) of 0.022 mg/dL, a TC (6 h) of 78.2 mg/dL and a TG (6 h) of 63.8 mg/dL. For the same compound, the TP (6 h) was 5.5 g/dL, the gamma-GTP (6 h) was 2.4 IU/L and the TERMINAL_BW (9 h) was 217.8 g. It also gave an APTT (9 h) of 22.6 s, a Bas (9 h) of 0% and an Eos (9 h) of 1%. It also gave a Fbg (9 h) of 319.4 mg/dL, a Hb (9 h) of 13.2 g/dL and a Ht (9 h) of 39.5%. The Lym (9 h) was 73.8%, the MCH (9 h) was 20.6 pg and the MCHC (9 h) was 33.4%. The MCV (9 h) was 61.8 fL, the Mono (9 h) was 2.8% and the Neu (9 h) was 22%. The PT (9 h) was 16.2 s, the Plat (9 h) was 117.1 x10_4/uL and the RBC (9 h) was 638.6 x10_4/ul. The Ret (9 h) was 6.6%, the WBC (9 h) was 87.6 x10_2/uL and the KIDNEY_L (9 h) was 0.9 g. It also gave a KIDNEY_R (9 h) of 1 g, a KIDNEY_TOTAL (9 h) of 1.9 g and an LIVER (9 h) of 8.9 g. For the same compound, the A/G (9 h) was 1.2, the ALP (9 h) was 1569.2 IU/L and the ALT (9 h) was 39.2 IU/L. It also gave an AST (9 h) of 72 IU/L, a BUN (9 h) of 11.6 mg/dL and a CRE (9 h) of 0.1 mg/dL. It also gave a Ca (9 h) of 11 mg/dL, a Cl (9 h) of 107.6 meq/L and a DBIL (9 h) of 0 mg/dL. For the same compound, the GLC (9 h) was 183.8 mg/dL, the IP (9 h) was 8.9 mg/dL and the K (9 h) was 3.9 meq/L. For the same compound, the LDH (9 h) was 183.2 IU/L, the Na (9 h) was 141 meq/L and the PL (9 h) was 132.8 mg/dL. For the same compound, the RALB (9 h) was 3 g/dL, the TBIL (9 h) was 0.022 mg/dL and the TC (9 h) was 74 mg/dL. It also gave a TG (9 h) of 54.6 mg/dL, a TP (9 h) of 5.4 g/dL and a gamma-GTP (9 h) of 1.6 IU/L. The TERMINAL_BW (24 h) was 231.5 g, the APTT (24 h) was 19.5 s and the Bas (24 h) was 0%. For the same compound, the Eos (24 h) was 1%, the Fbg (24 h) was 327.8 mg/dL and the Hb (24 h) was 13.3 g/dL. The Ht (24 h) was 39.7%, the Lym (24 h) was 80.2% and the MCH (24 h) was 21 pg. It also gave an MCHC (24 h) of 33.5%, an MCV (24 h) of 62.7 fL and a Mono (24 h) of 2%. For the same compound, the Neu (24 h) was 15.2%, the PT (24 h) was 15.6 s and the Plat (24 h) was 124.7 x10_4/uL. For the same compound, the RBC (24 h) was 633.8 x10_4/ul, the Ret (24 h) was 7.6% and the WBC (24 h) was 82.4 x10_2/uL. The KIDNEY_L (24 h) was 1 g, the KIDNEY_R (24 h) was 1 g and the KIDNEY_TOTAL (24 h) was 2 g. For the same compound, the LIVER (24 h) was 11.2 g, the A/G (24 h) was 1.3 and the ALP (24 h) was 1530.4 IU/L. The ALT (24 h) was 39.4 IU/L, the AST (24 h) was 67.6 IU/L and the BUN (24 h) was 15 mg/dL. For the same compound, the CRE (24 h) was 0.1 mg/dL, the Ca (24 h) was 11.1 mg/dL and the Cl (24 h) was 105.8 meq/L. For the same compound, the DBIL (24 h) was 0 mg/dL, the GLC (24 h) was 189 mg/dL and the IP (24 h) was 7.8 mg/dL. It also gave a K (24 h) of 4.2 meq/L, an LDH (24 h) of 171.2 IU/L and a Na (24 h) of 143.4 meq/L. It also gave a PL (24 h) of 152.4 mg/dL, an RALB (24 h) of 3.1 g/dL and a TBIL (24 h) of 0.006 mg/dL. It also gave a TC (24 h) of 79.2 mg/dL, a TG (24 h) of 145.2 mg/dL and a TP (24 h) of 5.6 g/dL. It also gave a gamma-GTP (24 h) of 1.4 IU/L.

From ChEMBL document CHEMBL3885861, “Open TG-GATES”
